Columns and labels:
CT26 colon tumors = test: In vivo CEST MRI of 150 kD dextran uptake before and after TNF-α; parameters: species or system mice; settings: TNF-α 1 μg per mouse, one hour after 150 kD dextran
Description: For dextran of 150 kD, a slightly different protocol was used (FIG. 3a). […] One hour later, TNF-α (1 μg per mouse) was injected. The CEST MRI was acquired using a series of z spectral imaging acquisition (from −3 ppm to +3 ppm, step=0.2 ppm). Each acquisition took ˜16 minutes. For all the studies, a fat-suppressed RARE sequence with a continuous wave pre-saturation pulse B1=1.8 μT and 3 seconds (TR/TE=5000/5 ms, RARE factor=10)^2 was used. Data were processed using custom-written MATLAB scripts. After correcting for B0 inhomogeneity using the WASSR method, the in vivo CEST contrast was quantified by averaging the MTRasym=(S^−Δω−S^+Δω)/S0 from 0.8 to 1.2 ppm.^2

tumor = test: In vivo and ex vivo fluorescence imaging and immunohistochemistry with dextran-FITC; parameters: species or system mice; settings: after TNF-α
Description: The changes of mean ROI CEST contrast of tumor and kidney are plotted on the right. […] The dextran can be also imaged by its conjugated fluorescein (FITC).

TNF-α
effect of TNF-α on dextran accumulation in tumor and kidney (CT26 colon tumors): increased vascular permeability
dextran uptake in tumors by fluorescence imaging and immunohistochemistry (tumor): marked increased dextran uptake in tumors
